The source of these data is patent publication US9247759B2, “Identification of human T2R receptors that respond to bitter compounds that elicit the bitter taste in compositions, and the use thereof in assays to identify compounds that inhibit (block) bitter taste in compositions and use thereof” (SENOMYX, INC., priority 2007, dated 2016).

Sequence of hT2R8 (Q9NYW2 whole entry): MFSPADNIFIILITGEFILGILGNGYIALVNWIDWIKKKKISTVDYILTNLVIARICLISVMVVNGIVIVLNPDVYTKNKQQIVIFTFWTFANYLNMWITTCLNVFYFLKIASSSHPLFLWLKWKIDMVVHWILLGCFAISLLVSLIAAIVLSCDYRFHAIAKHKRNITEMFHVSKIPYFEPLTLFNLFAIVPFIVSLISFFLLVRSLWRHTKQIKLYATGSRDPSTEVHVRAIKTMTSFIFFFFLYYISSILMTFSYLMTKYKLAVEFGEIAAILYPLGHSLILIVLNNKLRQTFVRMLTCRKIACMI

For the first assay, the target named is hT2R14 (Homo sapiens (Human), UniProt Q9NYV8). As to the kind of experiment: hT2R14 antagonist high-throughput FLIPR assay, stable cell line with G16g44, agonist aristolochic acid. The class given is cell-based. The following applies: Table B; read-out: hT2R14 IC50. As for the experimental part: The inventors also used the automated fluorimetric […] system FLIPR using a slightly different protocol. A HEK293 cell line stably expressing G16gust44 was transfected with a hT2R expression plasmid, 24 hours later, the cells are loaded and analyzed on FLIPR.
Sequence of hT2R14 (Q9NYV8 whole entry): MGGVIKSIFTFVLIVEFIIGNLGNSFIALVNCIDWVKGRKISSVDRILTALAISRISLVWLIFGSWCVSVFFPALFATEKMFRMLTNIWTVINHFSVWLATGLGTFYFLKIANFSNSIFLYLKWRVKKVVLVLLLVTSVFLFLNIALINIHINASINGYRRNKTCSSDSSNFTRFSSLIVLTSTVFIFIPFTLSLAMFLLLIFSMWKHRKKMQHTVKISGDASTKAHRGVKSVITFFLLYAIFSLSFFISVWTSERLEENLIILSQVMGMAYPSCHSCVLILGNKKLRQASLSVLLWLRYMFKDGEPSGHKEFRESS
After a ligand is identified for a particular hT2R, a HEK293 cell line stably expressing both the hT2R and G16gust44 are generated, facilitating future screening assays to identify other ligands that activate the particular hT2R or which modulate (block or enhance) the activation of this hT2R by another bitter ligand such as a bitter compound contained in coffee. This avoids the need for transient transfection.
To identify antagonists, cell lines stably expressing hT2R8 and hT2R14, respectively, together with the promiscuous chimeric G16g44 protein were generated as described in previous patent applications. A high-throughput assay was established using the stable cell lines and FLIPR (Fluorescent Imaging Plate Reader). An agonist of hT2R8 or hT2R14 was used to activate the receptors up to 70-80% of their respective maximal activity. For hT2R8, the agonist used was andrographolide (200 […]); for hT2R14, it was aristolochic acid (3 μM). To identify antagonists, compounds with diverse chemical structures were added together with the agonist.
For `CC(C)CN(CC(C)C)S(=O)(=O)c1ccc(C(=O)O)cc1` [Compound 5-9, 4-(N,N-diisobutylsulfamoyl)benzoic acid], the IC50 worked out at 15000 nM.

The same assay, now with this note: Table C; read-out: hT2R14 IC50.
`O=C(O)C1CCC(CN(Cc2ccc(F)cc2)S(=O)(=O)c2cccnc2)CC1` (centres unmarked) [Example 5-52, 4-((N-(4-fluorobenzyl)pyridine-3-sulfonamido)methyl)cyclohexanecarboxylic acid]: the IC50 was 8430 nM.

Turning to `COc1ccc(CN(CC2CCC(C(=O)O)CC2)C(=S)Nc2ccc(C)c(Cl)c2)cc1` (centres unmarked) [Example 5-111, 4-((3-(3-chloro-4-methylphenyl)-1-(4-methoxybenzyl)thioureido)methyl) cyclohexanecarboxylic acid], the IC50 was found to be 6140 nM.

For the compound `COc1ccc(CN(CC2CCC(C(=O)O)CC2)C(=S)Nc2ccccc2OC)cc1` (centres unmarked) [Example 5-112, 4-((1-(4-methoxybenzyl)-3-(2-methoxyphenyl)thioureido)methyl) cyclohexanecarboxylic acid], the IC50 was 8850 nM.

Turning to `CCc1ccc(CN(CC2CCC(C(=O)O)CC2)C(=S)Nc2ccccc2C)cc1` (centres unmarked) [Example 5-113, 4-((1-(4-ethylbenzyl)-3-o-tolylthioureido)methyl) cyclohexanecarboxylic acid], the IC50 turned out to be 5020 nM.

The same assay, now with this note: read-out: IC50 on hT2R14 bitter receptor.
In the case of `COc1ccc(CN(Cc2ccccc2)S(=O)(=O)c2ccc(C(=O)O)cc2)cc1OC` [Example 5-39, 4-(N-benzyl-N-(3,4-dimethoxybenzyl)sulfamoyl)benzoic acid], the IC50 worked out at 678 nM.

`O=C(O)c1ccc(CN(Cc2cccc(F)c2)S(=O)(=O)c2ccc(O)cc2)cc1` [Example 5-45, 4-((N-(3-fluorobenzyl)-4-hydroxyphenylsulfonamido)methyl)benzoic acid]: the IC50 was 459 nM.

Another assay has as its target hT2R8 (Homo sapiens (Human), UniProt Q9NYW2). As to the kind of experiment: hT2R8 antagonist high-throughput FLIPR assay, stable cell line with G16g44, agonist andrographolide. The assay is classed as cell-based. The following applies: read-out: IC50 on hT2R8 bitter receptor. The procedure, abridged:
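Antagonist screen: compounds co-applied with agonist andrographolide at 200 μM, a dose giving 70–80% of maximal hT2R8 activation. Fluorescence measured by FLIPR in a stable HEK293 line expressing both hT2R8 and the promiscuous G16g44 protein.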
With `Cc1noc(C)c1Cn1cc(N2C(=O)[C@@H]3Cc4ccc(O)cc4CN3C2=O)cn1` [Example 13-1, (S)-2-(1-((3,5-dimethylisoxazol-4-yl)methyl)-1H-pyrazol-4-yl)-7-hydroxy-10,10a-dihydroimidazo[1,5-b]isoquinoline-1,3(2H,5H)-dione], the IC50 came to 20 nM.

As to `Cc1noc(C)c1Cn1cc(N2C(=O)[C@H]3Cc4ccc(O)cc4CN3C2=O)cn1` [Example 13-2, (R)-2-(1-((3,5-dimethylisoxazol-4-yl)methyl)-1H-pyrazol-4-yl)-7-hydroxy-10,10a-dihydroimidazo[1,5-b]isoquinoline-1,3(2H,5H)-dione], the IC50 worked out at 30 nM.

Turning to `Cc1noc(C)c1Cn1cc(N2C(=O)C3Cc4cc(O)ccc4CN3C2=O)cn1` (centres unmarked) [Example 13-3, 2-(1-((3,5-dimethylisoxazol-4-yl)methyl)-1H-pyrazol-4-yl)-8-hydroxy-10,10a-dihydroimidazo[1,5-b]isoquinoline-1,3(2H,5H)-dione], the IC50 was determined as 30 nM.

The assay is the same for the next values; noted with them: table after Example 12-37; read-out: hT2R8 IC50.
As to `Cc1noc(C)c1Cn1cc(N2C(=O)N(Cc3ccc(F)cc3F)C(C)(C)C2=O)cn1` [Example 12-74, 1-(2,4-difluorobenzyl)-3-(1-((3,5-dimethylisoxazol-4-yl)methyl)-1H-pyrazol-4-yl)-5,5-dimethylimidazolidine-2,4-dione], the IC50 worked out at 530 nM.

In the case of `COC(=O)COc1cccc(CN2C(=O)N(c3cnn(Cc4c(C)noc4C)c3)C(=O)C2(C)C)c1` [Example 12-75, methyl 2-(3-((3-(1-((3,5-dimethylisoxazol-4-yl)methyl)-1H-pyrazol-4-yl)-5,5-dimethyl-2,4-dioxoimidazolidin-1-yl)methyl)phenoxy)acetate], the IC50 was 530 nM.

Consider `COc1ccc(CN2C(=O)N(c3cnn(Cc4c(C)noc4C)c3)C(=O)C2(C)C)cc1C` [Example 12-76, 3-(1-((3,5-dimethylisoxazol-4-yl)methyl)-1H-pyrazol-4-yl)-1-(4-methoxy-3-methylbenzyl)-5,5-dimethylimidazolidine-2,4-dione], for which the IC50 came out at 540 nM.

With `Cc1noc(C)c1Cn1cc(N2C(=O)N(CCO)C(C)(C)C2=O)cn1` [Example 12-77, 3-(1-((3,5-dimethylisoxazol-4-yl)methyl)-1H-pyrazol-4-yl)-1-(2-hydroxyethyl)-5,5-dimethylimidazolidine-2,4-dione], the IC50 was found to be 560 nM.

Consider `Cc1noc(C)c1Cn1cc(N2C(=O)N(CCCc3ccccc3)C(C)(C)C2=O)cn1` [Example 12-78, 3-(1-((3,5-dimethylisoxazol-4-yl)methyl)-1H-pyrazol-4-yl)-5,5-dimethyl-1-(3-phenylpropyl)imidazolidine-2,4-dione], for which the IC50 worked out at 580 nM.

As to `Cc1noc(C)c1Cn1cc(N2C(=O)N(Cc3ccc(C#N)cc3)C(C)(C)C2=O)cn1` [Example 12-79, 4-((3-(1-((3,5-dimethylisoxazol-4-yl)methyl)-1H-pyrazol-4-yl)-5,5-dimethyl-2,4-dioxoimidazolidin-1-yl)methyl)benzonitrile], the IC50 was 50 nM.

With `COCCOc1cccc(CN2C(=O)N(c3cnn(Cc4c(C)noc4C)c3)C(=O)C2(C)C)c1` [Example 12-80, 3-(1-((3,5-dimethylisoxazol-4-yl)methyl)-1H-pyrazol-4-yl)-1-(3-(2-methoxyethoxy)benzyl)-5,5-dimethylimidazolidine-2,4-dione], the IC50 is 710 nM.

Turning to `Cc1ccc(CN2C(=O)N(c3cnn(Cc4c(C)noc4C)c3)C(=O)C2(C)C)cc1` [Example 12-81, 3-(1-((3,5-dimethylisoxazol-4-yl)methyl)-1H-pyrazol-4-yl)-5,5-dimethyl-1-(4-methylbenzyl)imidazolidine-2,4-dione], the IC50 was determined as 740 nM.

On to `Cc1cccc(CN2C(=O)N(c3cnn(Cc4c(C)noc4C)c3)C(=O)C2(C)C)c1F` [Example 12-82, 3-(1-((3,5-dimethylisoxazol-4-yl)methyl)-1H-pyrazol-4-yl)-1-(2-fluoro-3-methylbenzyl)-5,5-dimethylimidazolidine-2,4-dione], for which the IC50 was determined as 810 nM.

Take `Cc1ccc(CN2C(=O)N(c3cnn(Cc4c(C)noc4C)c3)C(=O)C2(C)C)cc1C` [Example 12-83, 1-(3,4-dimethylbenzyl)-3-(1-((3,5-dimethylisoxazol-4-yl)methyl)-1H-pyrazol-4-yl)-5,5-dimethylimidazolidine-2,4-dione]: the IC50 was found to be 1220 nM.

As to `Cc1noc(C)c1Cn1cc(N2C(=O)N(Cc3cccc(C(F)(F)F)c3)C(C)(C)C2=O)cn1` [Example 12-84, 3-(1-((3,5-dimethylisoxazol-4-yl)methyl)-1H-pyrazol-4-yl)-5,5-dimethyl-1-(3-(trifluoromethyl)benzyl)imidazolidine-2,4-dione], the half-maximal inhibitory concentration (IC50) worked out at 1540 nM.

Regarding `Cc1cccc(C)c1CN1C(=O)N(c2cnn(Cc3c(C)noc3C)c2)C(=O)C1(C)C` [Example 12-85, 1-(2,6-dimethylbenzyl)-3-(1-((3,5-dimethylisoxazol-4-yl)methyl)-1H-pyrazol-4-yl)-5,5-dimethylimidazolidine-2,4-dione], the IC50 worked out at 1580 nM.

For `Cc1ccc(CN2C(=O)N(c3cnn(Cc4c(C)noc4C)c3)C(=O)C2(C)C)c(C)c1` [Example 12-86, 1-(2,4-dimethylbenzyl)-3-(1-((3,5-dimethylisoxazol-4-yl)methyl)-1H-pyrazol-4-yl)-5,5-dimethylimidazolidine-2,4-dione], the IC50 came out at 1890 nM.

Take `Cc1noc(C)c1Cn1cc(N2C(=O)N(Cc3cccc(OCCN(C)C)c3)C(C)(C)C2=O)cn1` [Example 12-87, 1-(3-(2-(dimethylamino)ethoxy)benzyl)-3-(1-((3,5-dimethylisoxazol-4-yl)methyl)-1H-pyrazol-4-yl)-5,5-dimethylimidazolidine-2,4-dione]: the IC50 worked out at 2080 nM.

For the compound `Cc1noc(C)c1Cn1cc(N2C(=O)N(Cc3ccc(CO)cc3)C(C)(C)C2=O)cn1` [Example 12-88, 3-(1-((3,5-dimethylisoxazol-4-yl)methyl)-1H-pyrazol-4-yl)-1-(4-(hydroxymethyl)benzyl)-5,5-dimethylimidazolidine-2,4-dione], the IC50 came out at 360 nM.

Turning to `Cc1noc(C)c1Cn1cc(N2C(=O)N(Cc3ccc(C(=O)O)cc3)C(C)(C)C2=O)cn1` [Example 12-89, 4-((3-(1-((3,5-dimethylisoxazol-4-yl)methyl)-1H-pyrazol-4-yl)-5,5-dimethyl-2,4-dioxoimidazolidin-1-yl)methyl)benzoic acid], the half-maximal inhibitory concentration (IC50) was found to be 2310 nM.

For the compound `Cc1noc(C)c1Cn1cc(N2C(=O)N(Cc3cccc(OCC(=O)O)c3)C(C)(C)C2=O)cn1` [Example 12-90, 2-(3-((3-(1-((3,5-dimethylisoxazol-4-yl)methyl)-1H-pyrazol-4-yl)-5,5-dimethyl-2,4-dioxoimidazolidin-1-yl)methyl)phenoxy)acetic acid], the IC50 was determined as 2850 nM.

In the case of `Cc1noc(C)c1Cn1cc(N2C(=O)N(Cc3ccccc3C(=O)O)C(C)(C)C2=O)cn1` [Example 12-91, 2-((3-(1-((3,5-dimethylisoxazol-4-yl)methyl)-1H-pyrazol-4-yl)-5,5-dimethyl-2,4-dioxoimidazolidin-1-yl)methyl)benzoic acid], the IC50 worked out at 4230 nM.

For the compound `COCc1ccc(CN2C(=O)N(c3cnn(Cc4c(C)noc4C)c3)C(=O)C2(C)C)cc1` [Example 12-92, 3-(1-((3,5-dimethylisoxazol-4-yl)methyl)-1H-pyrazol-4-yl)-1-(4-(methoxymethyl)benzyl)-5,5-dimethylimidazolidine-2,4-dione], the IC50 was found to be 280 nM.
